Reference: patent publication US20020091139A1 (DAMON TODD HOLDINGS, L.L.C., priority 1997, published 2002)

Assays:
[1] = system: neutrophil superoxide production; conditions: also in peripheral blood monocytes; cited from earlier work
[2] = system: severe symptomatic non-steroid dependent and steroid-dependent asthmatics; experiment: Open label 28-week trial of HCQ in severe asthma; type: in vivo, human; conditions: for mean IgE level: ten patients
Method: Annals of Allergy 1992;68(1):80 (abstract #40). The initial trial involved four severe symptomatic non-steroid dependent and seven steroid-dependent asthmatics in an open label 28-week trial at doses of 300-400 mg/d. Evaluation measures included daily symptom diary scores of six symptoms, subjective global evaluation, spirometric flow studies, and cumulative monthly steroid dosages.

[3] = system: T-cells and monocytes; human macrophages; conditions: cited from earlier work
HIV virus = conditions: T cells and monocytes; cited from earlier work
platelet aggregation = conditions: cited from earlier work
[4] = system: steroid-dependent asthmatics (SDA) and non-steroid-dependent asthmatics (NSDA); experiment: Follow-up observations of asthmatics treated long-term with HCQ (SDA and NSDA groups); type: in vivo, human
From the text: Follow-up observations carried out over the last four years among patients treated with HCQ continue to encourage further research. In Table I and II, data concerning the course of 23 steroid-dependent asthmatics (SDA) who have been followed for at least six months on therapy is presented. Spirometric data from these patients is summarized on page 2 of Table I. In the summary, two data groups are reported: the first includes all data points generated and compares each time point with t=0; the second is restricted to the 17 patients for whom data is complete at all time points. The findings are similar for both groups: both FVC and FEV-1 increase both a significant amount (about 10%) and to a degree that is statistically significant as well (using Wilcoxon Signed-Rank probability testing). These increases occurred despite a taper in prednisone outlined in Table I and detailed in Table II. Average daily oral steroid dosage was reduced by 60%, while objective spirometric flow measures and general health improved markedly.
Changes in severity of asthma in non-steroid-dependent asthmatics (NSDA) are depicted in Table III. In Table III, spirometric flow data is presented. […] Probability testing (Wilcoxon Signed-Rank) in this group achieves significant change from baseline measures by month six and continued improvement is noted throughout the time of treatment.
2] […] In neither the NSDA group (Table I) nor in the SDA group (Table II) did spirometric flows (as measured by FEV-1) improve to a statistically significant degree at three months. […] In Table IV, data regarding the frequency of rescue-intervention in the NSDA group is reviewed. […] The course of patient, presented in Table V is illustrative of the reproducibility of the delay in onset of action seen in severe asthmatics. This patient was started on HCQ due to very labile asthma requiring frequent ER visits and oral steroid bursts (see Table VI). On HCQ they did better, but became pregnant (against medical advice) and the drug was discontinued. Subsequently, they did quite poorly necessitating restart of alternate-day oral steroids which were maintained during the latter part of their pregnancy. HCQ was restarted at their request following delivery. Again, no clear effect in the person was noted after three months, but after seven months substantial improvement was noted despite appreciable reduction in the dose of their alternate-daily oral steroids.
In patients with normal IgE levels, changes were not significant either in amount (19%) nor by statistical criteria. Significant declines in IgE were virtually completely confined to that segment of the patients who entered treatment with elevated IgE levels. […] These clinical observations are supported by in vitro studies carried out recently by Seggev and co-workers. […] J Immunol 1993;150(8):62A.

human lung = conditions: ex vivo human lung; cited from earlier work
influenza and adenovirus = conditions: personal communication; cited from earlier work
symptomatic asthmatics = experiment: Double blind placebo-controlled 30-week trial of HCQ in moderate symptomatic asthma; type: in vivo, human
From the text: Symptomatic asthmatics (mean duration>11 years) on stable doses of at least 6 puffs of inhaled steroid per day and p.r.n. bronchodilator (BD) were studied. […] Changes from baseline mean FEV-1 comprised the primary efficacy variable. Other objective variables included daily peak flows, BD usage and setum IgE level; symptom scores and physician global (safety and tolerance) assessments were also obtained. Subjective efficacy variables (rated from 0-3) include breathing restrictions (wheezing, coughing, chest tightness and/or breathlessness), revived need for BD at 6 hours, and nocturnal asthma.

[5] = group as a whole, 28 weeks, 300-400 mg/d, p<0.01
[6] = non-steroid-dependent asthmatics, p<0.05
[7] = steroid-dependent patients, not significant
[8] = steroid-dependent asthmatics, at least six months on therapy

CCN(CCO)CCCC(C)Nc1ccnc2cc(Cl)ccc12 (stereo not shown) [HCQ, Hydroxychloroquine]
neutrophil superoxide production and release [1]: markedly reduce | effect on plasma theophylline levels ([2]; drug interaction): no significant effect | mean IgE level ([2]; during treatment, p<0.05): 339 IU/ml | mean FEV-1 increase [2, 5]: 17% | mean FVC increase [2, 5]: 10% | mean of each of six symptom scores ([2]; group as a whole, p<0.05): declined significantly | mean FEV-1 rise [2, 6]: 32% | mean FVC rise [2, 6]: 19% | mean symptom scores for four of five symptoms [2, 6]: declined from baseline | mean IgE level ([2]; pretreatment): 645 IU/ml | cumulative mean monthly steroid dosage required ([2]; steroid-dependent patients, at entry): 383 mg | cumulative mean monthly steroid dosage required ([2]; steroid-dependent patients, at week 28): 191 mg | decrease of cumulative mean monthly steroid dosage required ([2]; steroid-dependent patients, entry to week 28, p<0.01): 50% | mean FEV-1 increase [2, 7]: 9% | mean FVC increase [2, 7]: 7% | symptom scores ([2]; steroid-dependent patients, p<0.05): two of five symptom scores improved | release of IL-1 and IL-6 ([3]; T-cells and monocytes in vitro): inhibit | release of tumor necrosis factor ([3]; human macrophages in vitro): inhibit | replication of HIV virus (HIV virus): actively inhibits | platelet aggregation (platelet aggregation): inhibit | forced vital capacity and FEV-1 ([4]; 11 non-steroid-dependent asthmatics, significant from month six): very significant improvements | rescue-interventions (normalized rates) ([4]; NSDA group, until after three months therapy): no significant fall | decrease in serum IgE levels ([4]; patients in general, pre- vs post-treatment): ~40% | change in serum IgE levels ([4]; patients with normal IgE levels, not significant): 19% | onset of significant effects ([4]; severe asthmatics): only after three months | reduction of average daily oral steroid dosage ([4]; steroid-dependent asthmatics): 60% | FEV-1 increase [4, 8]: about 10% | FVC increase [4, 8]: about 10% | histamine release (human lung): inhibits | leukotriene release (human lung): inhibits | infection by influenza and adenovirus (influenza and adenovirus): inhibits | tolerability (symptomatic asthmatics; 30 weeks): well tolerated without notable side-effects | patients requiring oral steroid rescue interventions (symptomatic asthmatics; HCQ group n=8 (4 on placebo)): 2 patients | mean IgE level (symptomatic asthmatics; HCQ group, baseline): 240 lU/ml | mean IgE level (symptomatic asthmatics; HCQ group, on therapy): 125 lU/ml | evening peak flows rise (symptomatic asthmatics; HCQ group, p<0.04): 14.2% | mean IgE level decline (symptomatic asthmatics; HCQ group, p<0.05): 48% | BD usage fall (symptomatic asthmatics; bronchodilator usage, HCQ group, p<0.03): 18.6% | mean FEV-1 increase (symptomatic asthmatics; last 2 visits on therapy vs baseline, HCQ group n=8, p<0.05): 10.8% | effect on cholesterol (symptomatic asthmatics; sparing of HDL levels): mild hypocholesterolemic effects
